Laboratory results reported in patent US11692222B2, “Animal model of non-alcoholic liver disease and composition of diagnosis, prevention or treatment for non-alcoholic liver disease” (KOREA ADVANCED INSTITUTE OF SCIENCE AND TECHNOLOGY, priority 2018, dated 2023).

Tests used:
[1] = test system: DKO mice (Pten−/−;Sav1−/−); test: MK-2206 treatment of 3-week-old DKO mice for 2 weeks (fatty liver); type: in vivo, mouse; conditions: 66 mg/kg i.p. every other day for 2 weeks, vs vehicle
Procedure: (§1) Adenovirus for overexpression of CRE, YAP5SA, TAZ4SA, or GFP (control) and AAV-saCas9-sgIrs2 or sgCtl in the mouse liver were injected into the tail vain of […], respectively. The mice were deprived of food for 16 hours at day 4 (YAP5SA, TAZ4SA, and GFP) or week 4 (CRE and GFP) after adenovirus injection. MK-2206 (Selleckchem; S1078) was prepared in 30% Captisol (CyDex Pharmaceuticals; RC-0C7) and administered to DKO mice by intraperitoneal injection at a dose of 66 mg/kg every other day for 2 weeks, beginning at 3 or 12 weeks of age.
Given the lack of treatments for NASH, the present inventors next asked whether pharmacological inhibition of AKT could ameliorate fatty liver and slow cancer progression in DKO mice. To this end, the present inventors administered the pan-AKT inhibitor MK-2206 (phase II clinical trials) intraperitoneally to 3-week-old DKO mice.
FIGS. 8b to 8d are graphs of the result of liver-to-body weight ratio percentage, the analysis of liver enzymes in the serum, the qPCR analysis of lipogenesis-related gene expression in the liver of control (white bars) and MK-2206 (red bars), respectively.

[2] = test system: DKO mice (Pten−/−;Sav1−/−); test: MK-2206 treatment of 12-week-old DKO mice for 2 weeks (liver cancer); type: in vivo, mouse
Procedure: as §1
Further, to investigate the suppression of liver cancer, MK-2206 was injected to 12-week-old DKO mice that 80% of them had liver tumor (FIG. 1b). The graphs of FIG. 8f are the result of the result of liver-to-body weight ratio (F), liver tumor number and size (G), serum analysis (H) of the experiment shown in FIG. 8f. The graph representing the quantification analysis of Ki-67^+ hepatocytes of specimen is shown in FIG. 8h, and a graph representing the qPCR analysis of the expression of genes related to fibrosis (Acta2, desmin, and Tgfb), cell death or injury (Hmox1 and Gadd153), or inflammation (Tnfa) is shown in FIG. 8i.

[3] = 12-week-old DKO mice, 2 weeks treatment, vs vehicle

NC1(c2ccc(-c3nc4ccn5c(=O)[nH]nc5c4cc3-c3ccccc3)cc2)CCC1 [MK-2206]
expression of lipogenesis-related genes (Fasn, Acc1, Srebp1c), qPCR in liver [1]: lower expression of lipogenesis-related genes
fatty liver (macroscopic, H&E, Oil red O) [1]: less fatty liver
liver fibrosis (Sirius red) [1]: reduced liver fibrosis
liver function (liver enzymes in serum) [1]: improved liver function
liver weight (liver-to-body weight ratio) [1]: decreased liver weight
fatty liver and tumorigenesis ([2]; 12-week-old DKO mice, 66 mg/kg i.p. every other day for 2 weeks, vs vehicle): reduced fatty liver and tumorigenesis
Ki-67-positive cells [2, 3]: fewer Ki-67-positive cells
YAP expression (IHC) [2, 3]: without a corresponding change in YAP expression
expression of genes related to fibrosis (Acta2, desmin, Tgfb), cell death or injury (Hmox1, Gadd153) and inflammation (Tnfa), qPCR [2, 3]: reduced expression of genes related to fibrosis
fibrosis (Picrosirius red) [2, 3]: reduced fibrosis
hepatocyte TAZ expression (IHC) [2, 3]: lower levels of hepatocyte TAZ expression
hepatocytes with excessive lipid droplets (H&E) [2, 3]: fewer hepatocytes with excessive lipid droplets
liver color [2, 3]: normalized liver color
liver size (liver-to-body weight ratio) [2, 3]: reduced liver size
tumor nodule size [2, 3]: reduction in tumor nodule size
development of NAFLD and liver cancer in DKO mice ([2]; overall conclusion, DKO mice treated from 3 or 12 weeks of age): markedly attenuates the development of NAFLD and liver cancer
